Literature values as cited in EP4257117A1, “SUSTAINED-RELEASE PHARMACEUTICAL COMPOSITION OF FULVESTRANT AND METHOD FOR PREPARING SAME” (Samyang Holdings Corporation, priority 2020, dated 2022).
Read-outs that look alike come from different tables or passages of the source.

Legend:
[1] = according to the prescription of Faslodex Injection
[2] = in pure water, according to FDA data

In the case of C[C@]12CC[C@@H]3c4ccc(O)cc4C[C@@H](CCCCCCCCC[S+]([O-])CCCC(F)(F)C(F)(F)F)[C@H]3[C@@H]1CC[C@@H]2O (stereo partly drawn) [Fulvestrant, 7-alpha-[9-(4,4,5,5,5-pentafluoropentylsulphinyl)nonyl]estra-1,3,5-(10)-triene-3,17beta-diol], the “saturation solubility of Fulvestrant” value ([1]; at room temperature) is listed as “about 90 mg/mL”, the “saturation solubility of Fulvestrant” value ([1]; in refrigerated storage) is listed as “about 65 mg/mL” and the “solubility in aqueous solution” value [2] is listed as “practically insoluble”.
